# Assay results from patent publication US10508107B2, “Morpholine derivative” (Hoffmann-La Roche Inc., priority 2016, dated 2019).
# Like-named read-outs stand apart in the source and are kept apart here.
# What was measured:
# human DAT = human DAT (Homo sapiens (Human), UniProt Q01959); experiment: Binding to dopamine transporter (DAT) in vitro, [3H]-WIN35,428 SPA; conditions: for DAT selectivity ratio versus hTAAR1 EC50: DAT Ki / hTAAR1 EC50; for Ki: [3H]-WIN35,428 radioligand
# Description: Binding to dopamine transporter (DAT) in vitro. Human embryonic kidney (HEK) 293 cells (Invitrogen, Zug, Switzerland) stably transfected with human DAT were cultured. The cells were collected and washed three times with phosphate-buffered saline (PBS). The pellets were frozen at −80° C. The pellets were then resuspended in 400 ml of 20 mM HEPES-NaOH, pH 7.4, that contained 10 mM EDTA at 4° C. After homogenization with a Polytron (Kinematica, Lucerne,
# Switzerland) at 10000 rotations per minute (rpm) for 15 s, the homogenates were centrifuged at 48000×g for 30 min at 4° C. Aliquots of the membrane stocks were frozen at −80° C. All assays were performed at least three times. The test compounds were diluted in […] of binding buffer (252 mM NaCl, 5.4 mM KCl, 20 mM Na2HPO4, 3.52 mM KH2PO4, pH 7.4) and 10 point dilution curves were made and transferred to 96-well white polystyrene assay plates (Sigma-Aldrich, Buchs, Switzerland). […] Twenty microliters of binding buffer alone in the assay plate defined the total binding, whereas binding in the presence of 10 μM indatraline defined nonspecific binding. Frozen DAT membrane stocks were thawed and resuspended to a concentration of approximately 0.04 mg protein/ml binding buffer (1:1 diluted in H2O) using a polytron tissue homogenizer. The membrane homogenates (40 μg/ml) were then lightly mixed for 5-30 min with polyvinyl toluene […] wheat germ agglutinin-coated scintillation proximity assay (WGASPA; Amersham Biosciences) beads at 7.7 mg beads/ml homogenate. One hundred thirty microliters of the membrane/bead mixture were added to each well of the assay plate that contained radioligand and test compounds (final volume in each well, 200 μl) to start the assay, which was incubated for approximately 2 h at room temperature with agitation. The assay plates were then counted in the PVT SPA counting mode of a Packard Topcount. […] Non-linear regression was used to fit the data to sigmoid curves and determine IC50 values for binding and uptake. Ki values for binding and uptake were calculated using the following Cheng-Prusoff equation: Ki=IC50/(1+[S]/Km).
# hERG potassium channel = hERG potassium channel (Homo sapiens (Human), UniProt Q12809); experiment: hERG whole-cell patch-clamp in stably transfected CHO cells; format: cell-based; conditions: for IC50: patch-clamp, CHO cells, 36±1° C.; for selectivity ratio: pH 7.4, hERG IC20 / hTAAR1 EC50, read-out: hERG selectivity ratio versus hTAAR1 EC50
# Chain of hERG potassium channel (Q12809 whole entry): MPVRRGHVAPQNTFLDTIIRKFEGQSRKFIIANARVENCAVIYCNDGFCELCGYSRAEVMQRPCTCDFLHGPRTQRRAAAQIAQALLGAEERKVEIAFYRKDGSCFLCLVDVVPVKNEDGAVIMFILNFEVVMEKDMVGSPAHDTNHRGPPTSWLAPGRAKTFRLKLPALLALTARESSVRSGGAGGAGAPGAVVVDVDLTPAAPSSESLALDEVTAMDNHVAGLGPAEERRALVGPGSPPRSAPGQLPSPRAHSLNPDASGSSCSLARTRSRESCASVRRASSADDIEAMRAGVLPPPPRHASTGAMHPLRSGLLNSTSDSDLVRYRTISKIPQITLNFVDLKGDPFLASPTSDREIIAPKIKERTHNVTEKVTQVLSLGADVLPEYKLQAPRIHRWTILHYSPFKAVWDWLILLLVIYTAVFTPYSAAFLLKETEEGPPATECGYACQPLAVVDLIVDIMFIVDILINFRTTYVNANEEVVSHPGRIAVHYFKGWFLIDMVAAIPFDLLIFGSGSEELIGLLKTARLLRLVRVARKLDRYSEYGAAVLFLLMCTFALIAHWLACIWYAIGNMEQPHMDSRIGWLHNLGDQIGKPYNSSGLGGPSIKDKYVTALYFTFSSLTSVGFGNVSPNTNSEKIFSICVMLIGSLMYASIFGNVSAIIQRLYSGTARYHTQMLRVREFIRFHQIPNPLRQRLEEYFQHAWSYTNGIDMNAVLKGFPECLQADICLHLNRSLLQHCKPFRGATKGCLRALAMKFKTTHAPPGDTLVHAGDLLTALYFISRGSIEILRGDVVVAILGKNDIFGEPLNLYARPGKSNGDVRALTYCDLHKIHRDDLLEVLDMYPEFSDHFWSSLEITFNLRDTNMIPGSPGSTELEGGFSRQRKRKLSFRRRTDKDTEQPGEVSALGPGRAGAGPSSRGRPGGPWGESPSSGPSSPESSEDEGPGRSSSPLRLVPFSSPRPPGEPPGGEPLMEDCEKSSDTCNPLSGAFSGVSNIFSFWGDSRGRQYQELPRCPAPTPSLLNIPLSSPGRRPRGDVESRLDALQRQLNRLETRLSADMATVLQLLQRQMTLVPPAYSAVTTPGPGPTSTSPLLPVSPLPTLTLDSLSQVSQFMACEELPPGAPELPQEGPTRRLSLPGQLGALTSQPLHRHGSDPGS
# Description: The whole-cell patch-clamp technique was used to investigate the effects of the test items on hERG (human-ether-a-go-go related gene) potassium channels in stably transfected CHO cells near physiological temperature (36±1° C.). The effects of compounds on hERG K^+-current parameters were evaluated at 4 concentrations (0.3-3-30-300 μM) in at least 3 CHO cells stably expressing the hERG channel. For electrophysiological measurements cells were seeded onto 35 mm sterile culture dishes containing 2 ml culture medium without Hygromycin B. Cells were cultivated at a density that enabled single cells (without visible connections to neighbouring cells) to be measured. Cells were incubated at 37° C. in a humidified atmosphere with 5% CO2 (rel. humidity about 95%). The cells were continuously maintained in and passaged in sterile culture flasks containing nutrient mixture F-12 (DMEM/F-12 with L-Glutamine) supplemented with 10% foetal bovine serum and 10% penicillin/streptomycin solution. […] The 35 mm culture dishes upon which cells were seeded at a density allowing single cells to be recorded were placed on the dish holder of the microscope and continuously perfused (at approximately 1 ml/min) with the bath solution (sodium chloride 150 mM, potassium chloride 4 mM, calcium chloride 1.2 mM, magnesium chloride 1 mM, HEPES 10 mM, pH (NaOH) 7.4) at near physiological temperature (36±1° C.). After formation of a Gigaohm seal between the patch electrodes and individual hERG stably transfected CHO cells (pipette resistance range: 2.0 MΩ-7.0 Mω; seal resistance range: >1 Gω) the cell membrane across the pipette tip was ruptured to assure electrical access to the cell interior (whole-cell patch-configuration). In case the quality of the seal was poor, the process of seal formation was repeated with a different cell and a new pipette. […] This voltage protocol was run at least 10 times at intervals of 10 s. If current density was judged to be too low for measurement, another cell was recorded. […] During wash-in of the test item the voltage protocol indicated above was run continuously again at 10 s intervals until the steady-state level of block was reached. The four test item concentrations of the compound were applied sequentially to 3 cells in a cumulative manner. […] Based on the IC50 value the IC20 was estimated. Each concentration of the test item was analyzed in three experiments (n=3).
# human TAAR1 = human TAAR1 (Homo sapiens (Human), UniProt Q96RJ0); experiment: cAMP functional assay in HEK293 cells expressing human TAAR1; format: cell-based; conditions: for hTAAR1 efficacy*: % agonist activity, β-phenylethylamine = 100% agonism; for EC50: cAMP, HEK293 cells expressing human TAAR1, read-out: hTAAR1 EC50
# Chain of human TAAR1 (Q96RJ0 whole entry): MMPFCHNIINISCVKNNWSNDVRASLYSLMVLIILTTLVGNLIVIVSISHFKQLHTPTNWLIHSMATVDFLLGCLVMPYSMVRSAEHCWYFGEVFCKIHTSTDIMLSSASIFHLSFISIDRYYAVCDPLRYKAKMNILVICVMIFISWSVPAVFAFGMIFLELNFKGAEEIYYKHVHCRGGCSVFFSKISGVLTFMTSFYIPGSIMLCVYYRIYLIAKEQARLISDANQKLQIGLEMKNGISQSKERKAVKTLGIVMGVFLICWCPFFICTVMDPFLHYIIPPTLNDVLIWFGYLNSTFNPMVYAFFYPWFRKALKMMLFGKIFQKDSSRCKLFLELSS
# Description: For the construction of expression plasmids the coding sequences of human TAAR 1 were amplified from genomic DNA essentially as described by Lindemann et al.[14]. The Expand High Fidelity PCR System (Roche Diagnostics) was used with 1.5 mM Mg^2+ and purified PCR products were cloned into pCR2.1-TOPO cloning vector (Invitrogen) following the instructions of the manufacturer. PCR products were subcloned into the pIRESneo2 vector (BD Clontech, Palo Alto, Calif.), and expression vectors were sequence verified before introduction in cell lines.
# HEK293 cells (ATCC # CRL-1573) were cultured essentially as described by Lindemann et al. (2005). For the generation of stably transfected cell lines HEK293 cells were transfected with the pIRESneo2 expression plasmids containing the TAAR coding sequences (described above) with Lipofectamine 2000 (Invitrogen) according to the instructions of the manufacturer, and 24 hrs post transfection the culture medium was supplemented with 1 mg/ml G418 (Sigma, Buchs, Switzerland). After a culture period of about 10 d clones were isolated, expanded and tested for responsiveness to trace amines (all compounds purchased from Sigma) with the cAMP Biotrak Enzyme immunoassay (EIA) System (Amersham) following the non-acetylation EIA procedure provided by the manufacturer.
# cAMP measurements were performed as described previously (Revel et al., Proc. Natl. Acad. Sci. USA 2011, 108, 8485-8490). In brief, cells that expressed human TAAR1 were plated on 96-well plates (BIOCOAT 6640; Becton Dickinson, Allschwil, Switzerland) and incubated for 20 h at 37° C. Prior to stimulation of the cells with a broad concentration range of agonists for 30 min at 37° C., the cells were washed with PBS and preincubated with PBS that contained 1 mM 3-isobutyl-1-methylxanthine for 10 min at 37° C. and 5% CO2. Stimulation with 0.2% DMSO was set as the basal level, and the effect of 30 μM β-PEA was set as the maximal response. Subsequently, the cells were lysed, and cAMP assays were performed according to the manufacturer's instructions (cAMP kit; Upstate/Millipore, Schaffhausen, Switzerland). Finally, the plates were read with a luminometer (1420 Multilabel counter; PerkinElmer, Schwerzenbach, Switzerland), and the amount of cAMP was calculated. The results were obtained from at least three independent experiments. Experiments were run in duplicate or triplicate. EC50 values are presented as mean ±standard deviation (in μM).
# [1] = human, CHO cells stably expressing hERG, pH 7.4, estimated based on the IC50 value
# [2] = estimated based on the IC50 value
# [3] = human, CHO cells stably expressing hERG
# Chain of human DAT (Q01959 whole entry): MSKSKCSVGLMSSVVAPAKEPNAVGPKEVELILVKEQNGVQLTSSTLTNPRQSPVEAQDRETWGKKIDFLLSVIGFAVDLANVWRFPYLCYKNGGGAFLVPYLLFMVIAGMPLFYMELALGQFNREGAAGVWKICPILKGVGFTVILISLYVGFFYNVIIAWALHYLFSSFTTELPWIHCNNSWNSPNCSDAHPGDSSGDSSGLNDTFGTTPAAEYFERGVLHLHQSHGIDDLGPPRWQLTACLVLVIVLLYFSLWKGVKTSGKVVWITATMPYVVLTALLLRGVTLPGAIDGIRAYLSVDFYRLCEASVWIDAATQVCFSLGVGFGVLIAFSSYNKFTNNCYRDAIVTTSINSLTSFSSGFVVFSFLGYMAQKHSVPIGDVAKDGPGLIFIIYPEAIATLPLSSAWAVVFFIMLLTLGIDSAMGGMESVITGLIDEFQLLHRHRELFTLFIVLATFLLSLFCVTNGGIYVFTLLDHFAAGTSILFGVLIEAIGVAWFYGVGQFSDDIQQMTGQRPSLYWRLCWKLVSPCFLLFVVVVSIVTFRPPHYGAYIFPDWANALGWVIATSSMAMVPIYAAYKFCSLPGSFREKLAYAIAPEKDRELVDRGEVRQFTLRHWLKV
EC50 (human TAAR1; listed as example 11) [nM],EC50 (human TAAR1; listed as example 9) [nM],Ki (human DAT; listed as example 6) [nM],Compound,Ratio DAT Ki/hTAAR1 EC50 (human DAT),DAT selectivity ratio versus hTAAR1 EC50 (human DAT) [fold],Ki (human DAT) [nM],Ratio hERG IC20/hTAAR1 EC50 (hERG potassium channel),IC20 (hERG potassium channel; [1]) [nM],IC50 (hERG potassium channel) [nM],hTAAR1 efficacy* (human TAAR1) [%],EC50 (human TAAR1) [nM],IC20 (hERG potassium channel; [2]) [nM],selectivity ratio (hERG potassium channel; [3]),Ki (human DAT; listed as example 1) [nM],functional activity at hTAAR1 (human TAAR1; in vitro),EC50 (human TAAR1; listed as example 15) [nM],EC50 (human TAAR1; listed as example 13) [nM],EC50 (human TAAR1; listed as example 12) [nM]
–,–,–,"O=C(Nc1ccc([C@H]2CNCCO2)cc1)c1ccc(Cl)nc1 [Example 4, 6-Chloro-N-[4-[(2S)-morpholin-2-yl]phenyl]pyridine-3-carboxamide]",40,40,2500,201,12400,49700,49,61.9,–,–,–,–,–,–,–
–,–,–,"O=C(Nc1ccc([C@H]2CNCCO2)cc1)c1ccc(OCC(F)(F)F)nc1 [Example 3, N-[4-[(2S)-Morpholin-2-yl]phenyl]-6-(2,2,2-trifluoroethoxy)pyridine-3-carboxamide]",462,–,17400,52,–,9840,45,37.7,1970,52,–,–,–,–,–
–,–,–,"CCc1[nH]nc(C(=O)Nc2ccc([C@H]3CNCCO3)cc2)c1C [Example 1, 5-Ethyl-4-methyl-N-[4-[(2S)-morpholin-2-yl]phenyl]-1H-pyrazole-3-carboxamide]",–,–,27500,–,–,217000,42,–,36200,–,27500,partial agonist,–,–,–
–,–,–,"O=C(Nc1ccc([C@H]2CNCCO2)cc1)c1csc(-c2ccccc2)n1 [Example 16, N-[4-[(2S)-Morpholin-2-yl]phenyl]-2-phenyl-1,3-thiazole-4-carboxamide]",24,–,16200,5,–,8980,35,666,3350,5,–,–,–,–,–
203,–,–,"O=C(Nc1ccc([C@H]2CNCCO2)cc1)c1ccc(C(F)(F)F)nc1 [Example 11, N-[4-[(2S)-Morpholin-2-yl]phenyl]-6-(trifluoromethyl)pyridine-3-carboxamide]",–,–,2330,–,–,–,46,203,–,–,–,–,–,–,–
–,144,–,"O=C(Nc1ccc([C@H]2CNCCO2)cc1)c1cnc(Cl)c(Cl)c1 [Example 9, 5,6-Dichloro-N-[4-[(2S)-morpholin-2-yl]phenyl]pyridine-3-carboxamide]",–,–,480,–,–,–,32,144,–,–,–,–,–,–,–
–,–,–,"O=C(Nc1ccc([C@H]2CNCCO2)cc1)c1coc(-c2ccccc2)n1 [Example 15, N-[4-[(2S)-Morpholin-2-yl]phenyl]-2-phenyl-1,3-oxazole-4-carboxamide]",>39,–,> 26100,4,–,9650,35,663,2400,4,–,–,663,–,–
–,–,–,"O=C(Nc1ccc([C@H]2CNCCO2)cc1)c1cncc(Cl)c1 [Example 13, 5-Chloro-N-[4-[(2S)-morpholin-2-yl]phenyl]pyridine-3-carboxamide]",3,3,1310,23,–,66000,37,404,9140,23,–,–,–,405,–
–,–,–,"O=C(Nc1ccc([C@H]2CNCCO2)cc1)c1ccc(Cl)cn1 [Example 12, 5-Chloro-N-[4-[(2S)-morpholin-2-yl]phenyl]pyridine-2-carboxamide]",8,8,1780,15,3210,14300,40,212,–,15,–,–,–,–,212
–,–,–,"Cc1c(C(=O)Nc2ccc([C@H]3CNCCO3)cc2)n[nH]c1-c1ccccc1 [Example 8, 4-Methyl-N-[4-[(2S)-morpholin-2-yl]phenyl]-5-phenyl-1H-pyrazole-3-carboxamide]",90,–,9770,28,–,10800,33,109,3010,28,–,–,–,–,–
–,–,5900,"O=C(Nc1ccc([C@H]2CNCCO2)cc1)c1cnc(-c2ccccc2)s1 [Example 6, N-[4-[(2S)-Morpholin-2-yl]phenyl]-2-phenyl-1,3-thiazole-5-carboxamide]",–,–,5930,–,–,–,30,80,–,–,–,–,–,–,–
–,–,–,"CCc1[nH]nc(C(=O)Nc2ccc([C@@H]3CNCCO3)cc2)c1C [Example 2, 5-Ethyl-4-methyl-N-[4-[(2R)-morpholin-2-yl]phenyl]-1H-pyrazole-3-carboxamide]",–,–,–,–,–,–,38,–,–,–,–,–,–,–,–
